Like-named read-outs stand apart in the source and are kept apart here.
How the values were obtained:
[1] = MTT cytotoxicity assay on HT-1080 tumor cells, 72 h; format: cell-based, human; conditions: human, HT-1080 fibrosarcoma cells
Protocol: (§1) Tumor cell lines HT-1080 (human connective tissue fibrosarcoma) and MH-22A (mouse hepatocarcinoma) were used. All of the cells were obtained from the American Type Culture Collection ((ATCC,) Rockville, MD, USA). HT-1080 and MH-22A cells (4 × 10^4 cell/mL) were seeded in 96-well plates in Dulbecco’s modified Eagle’s medium (DMEM) containing 10% fetal bovine serum and cultivated for 72 h at 37 °C, 5% CO2 by exposure to different compounds concentrations (100 μg/mL, 25 μg/mL, 6.25 μg/mL, and 1.56 μg/mL). Cell viability was measured using 3-(4,5-dimethylthiazol-2-yl)-2,5-diphenyl-tetrazolium bromide (MTT) assay. In brief, after incubating with compounds, the culture medium was removed and fresh medium with 0.2 mg/mL MTT was added in each well of the plate. After incubation (3 h, 37 °C, 5% CO2), the medium with MTT was removed, and 200 μL of DMSO was added at once to each sample. The samples were tested at 540 nm on a Tecan multiplate reader Infinite1000 (Tecan Austria GmbH, Salzburg, Austria). The IC50 was calculated using the program Graph Pad Prism® 3.0.

[2] = tested on: HT-1080 (human connective tissue fibrosarcoma) cells; assay: as above; format: cell-based; conditions: MTT, 72 h; ne = no effect in the tested concentration (up to 100 μg/mL)
Protocol: as §1

[3] = Basal cytotoxicity test (neutral red uptake) with estimation of LD50 from IC50; format: cell-based, mouse; conditions: mouse, NIH 3T3 fibroblast cells
Protocol: The neutral red uptake (NRU) assay was performed according to the standard protocol of Stokes modified by NICEATM-ECVAM validation study. The NRU cytotoxicity assay procedure was based on the ability of viable cells to incorporate and bind neutral red, which is a supravital dye.
NIH 3T3 (Mouse Swiss Albino embryo fibroblast) cells (9000 cells/well) were placed into 96-well plates for 24 h in DMEM medium containing 5% fetal bovine serum (FBS). Then, they were exposed to the test compound over a range of seven concentrations (1000 μg/mL, 316 μg/mL, 100 μg/mL, 31 μg/mL, 10 μg/mL, 3.0 μg/mL, and 1.0 μg/mL) for 24 h. Untreated cells were used as a control. After 24 h, the medium was removed from all plates. Then, 250 μL of neutral red (NR) solution was added (0.05 mg/mL NR in DMEM 24 h pre-incubated at 37 °C and then filtered before use through a 0.22-µm syringe filter). Plates were incubated for 3 h, and then, cells were washed three times with phosphate buffered saline (PBS). The dye within viable cells was released by extraction with a mixture of acetic acid, ethanol, and water (1:50:49). The absorbance of neutral red was measured using a spectrophotometer multiplate reader Infinite M1000 (Tecan Austria GmbH, Salzburg, Austria) at 540 nm. The optical density (OD) was calculated using the formula: OD (treated cells) × 100/OD (control cells). The IC50 values were calculated using the program Graph Pad Prism® 3.0.
Data from the in vitro tests were used for estimating the starting dose for acute oral systemic toxicity tests in rodent. The in vivo starting dose is an estimated LD50 value that is calculated by inserting the in vitro IC50 value into a regression formula: log LD50 (mM/kg) = 0.439 log IC50 (mM) + 0.621 [29]. The value is recalculated to mg/kg, and compounds are evaluated in accordance with four toxicity categories: category 1: LD50 ≤ 5 mg/kg (highly toxic); category 2: 5 < LD50 ≤ 50 mg/kg (moderately toxic); category 3: 50 < LD50 ≤ 300 mg/kg (slightly toxic); category 4: 300 < LD50 ≤ 2000 mg/kg (practically non-toxic). Using an alternative in vitro method enables comparing the possible toxicity of new compounds and selecting compounds for further study, which will vastly reduce the number of animal experiments.

[4] = Determination of critical aggregation concentration (CAC) by DLS; format: physicochemical; conditions: aqueous media
Protocol: The critical aggregation concentrations (CAC) of 4-(N-alkylpyridinium)-1,4-DHP derivatives were determined in aqueous media using a Zetasizer Nano S90 (Malvern Panalytical Ltd., Malvern, UK) instrument with Malvern Instruments Ltd. Software according to procedure described by Topel et al. and modified by our group. Briefly, as stock solutions of tested compounds were used, samples were prepared for self-assembling experiments. All of the subsequent samples were prepared starting from the concentrated stock solution, which was subjected to a serial two-fold dilution each time with water. The intensity values of scattered light (kcps) as a function of concentration of amphiphiles were analysed. The scattering intensities detected for amphiphile concentrations below CAC have an approximately constant value corresponding to water. The intensity starts to show a linear increase with concentration at the CAC, since the amount of nanoparticles increases in the solution. The intersection of the best-fit lines drawn through the data points is the preliminary CAC value of the compounds.

[5] = tested on: neuroblastoma SH-SY5Y cell line; set-up: method as in doi:10.1016/j.crci.2013.07.003; conditions: read-out: Calcium antagonistic properties, IC50, SH-SY5Y; cited from earlier work
[6] = tested on: vascular smooth muscle A7R5 cell line; set-up: method as in doi:10.1016/j.crci.2013.07.003; conditions: read-out: Calcium antagonistic properties, IC50, A7R5; cited from earlier work
[7] = set-up: method as in PMID 26042808; conditions: cited from earlier work
[8] = MTT, 72 h, ne = no effect in the tested concentration (up to 100 μg/mL), read-out: Cytotoxicity IC50, HT-1080
[9] = category by estimated LD50 (mg/kg), read-out: Toxicity category from estimated LD50

C#CCOC(=O)C1=C(C)NC(C)=C(C(=O)OCC#C)C1c1ccc[n+](CCCCCCCCCCCC)c1 [Compound 9]
IC50 at 72 h [1, 8]: 1 to 4 µM | IC50 [2]: 2 ± 0.2 µM | LD50 at 24 h [3, 9]: 50 to 300 mg/kg | CAC [4]: 9.3 µM

CCCCCCCCCCCC[n+]1cccc(C2C(C(=O)OCC)=C(C)NC(C)=C2C(=O)OCC)c1 [Compound 3]
IC50 at 72 h [1, 8]: 37 ± 2 µM | CAC [4]: 9.3 µM | IC50 [5]: 5 to 14 µM | IC50 [6]: 0.6 to 0.7 µM | Blood–brain barrier crossing [7]: crossed the blood–brain barrier

C#CCN1C(C)=C(C(=O)OCC)C(c2ccc[n+](CCCCCCCCCCCC)c2)C(C(=O)OCC)=C1C [Compound 6]
LD50 at 24 h [3, 9]: 50 to 300 mg/kg | CAC [4]: 43.3 µM | IC50 [5]: 5 to 14 µM | IC50 [6]: 0.6 to 0.7 µM

C#CCOC(=O)C1=C(C)NC(C)=C(C(=O)OCC#C)C1c1ccc[n+](CC)c1 [Compound 7]
IC50 at 72 h ([1]; as printed in the supplementary toxicity table, read-out: Cytotoxicity, IC50, HT-1080 (supplementary table, for comparison)): 1000 µM | Cytotoxicity IC50, HT-1080 [2]: did not demonstrate any cytotoxic effect and ne | LD50 at 24 h ([3]; calculated from NIH 3T3 NRU IC50, recalculated to mg/kg, read-out: Basal Cytotoxicity Estimated LD50): > 2700 mg/kg

Reference: paper PMC6470589, “Contribution of Molecular Structure to Self-Assembling and Biological Properties of Bifunctional Lipid-Like 4-(N-Alkylpyridinium)-1,4-Dihydropyridines” (Pharmaceutics, 2019)
